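Results reflect a 48-hour exposure of cells in 96-well plates to compound at five concentrations. GI50 is the concentration that inhibits growth by half.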 Calls of active or inactive are those of the source. Cut-off read from the data, not from the text of the source: active = GI50 up to about 1.1 µM and inactive = higher.
Columns and labels:
Test in all cases: inhibition of tumour cell growth, NCI panel, 48 h
[1] = system: Hs-578T
[2] = system: 786-0
[3] = system: NCI/ADR-RES
[4] = system: SF-295
[5] = system: SF-539
[6] = system: RPMI-8226
[7] = system: UACC-62
[8] = system: NCI-H522
[9] = system: SNB-75
[10] = system: IGROV-1
[11] = system: UACC-257
[12] = system: MDA-MB-231
[13] = system: NCI-H460
[14] = system: MOLT-4
[15] = system: PC-3
[16] = system: OVCAR-5
[17] = system: DU-145
[18] = system: HCC 2998
[19] = system: SW-620
[20] = system: K562

Measured: GI50

COC(=O)C1=C(OC(=O)c2ccccc2)C(C(=O)OC)[C@@]2(O)[C@@H](C(=O)OC)[C@H](C)C[C@@H]1[C@@H]2C(=O)OC (stereo partly specified)
inactive: [1] 34.5 µM | [2] 38.1 µM | [3] 19 µM | [4] 35.1 µM | [5] 14.5 µM | [6] 19 µM | [7] 39.7 µM | [8] 13.2 µM | [9] 22.9 µM | [10] 33.8 µM | [11] 33.3 µM | [12] 37.7 µM | [13] 25.3 µM | [14] 46.1 µM | [15] 37.2 µM | [16] 47.2 µM | [17] 59.3 µM | [18] 25 µM | [19] 28.6 µM

Cc1cc(C)c(C#N)c(SC(=S)NC(=O)c2ccccc2)n1
inactive: [1] > 100 µM | [20] > 100 µM | [2] > 100 µM | [3] > 100 µM | [5] > 100 µM | [6] > 100 µM | [7] > 100 µM | [8] > 100 µM | [9] 1.53 µM | [10] > 100 µM | [11] > 100 µM | [12] > 100 µM | [13] > 100 µM | [14] > 100 µM | [15] > 100 µM | [16] > 100 µM | [17] > 100 µM | [18] > 100 µM | [19] > 100 µM

CC1(C)CC(=O)C(CC(C(=O)C(=O)Nc2cc(C(F)(F)F)ccc2Cl)C(=O)c2ccco2)C(=O)C1 (stereo unspecified)
inactive: [1] > 100 µM | [20] > 100 µM | [2] > 100 µM | [3] > 100 µM | [4] > 100 µM | [5] > 100 µM | [6] > 100 µM | [7] > 100 µM | [8] > 100 µM | [10] > 100 µM | [11] > 100 µM | [12] > 100 µM | [13] > 100 µM | [14] > 100 µM | [15] > 100 µM | [16] > 100 µM | [17] > 100 µM | [18] > 100 µM | [19] > 100 µM

COc1ccccc1N1CCN(Cn2c(=O)oc3cccnc32)CC1
inactive: [1] > 100 µM | [20] > 100 µM | [2] > 100 µM | [3] > 100 µM | [4] > 100 µM | [5] > 100 µM | [6] > 100 µM | [8] > 100 µM | [9] 30 µM | [10] > 100 µM | [11] > 100 µM | [12] > 100 µM | [13] > 100 µM | [14] > 100 µM | [15] > 100 µM | [16] > 100 µM | [17] > 100 µM | [18] > 100 µM | [19] 36.4 µM
